# System: Barnyardgrass (Echinochloa crus-galli)
# Experiment: Effect of adjuvant on glyphosate-IPA efficacy on barnyardgrass with simulated rainfall
# Assay type: in vivo
# Conditions: 0.75 wt % glyphosate-IPA without adjuvant, rainfall 2 h after application
# Protocol: Barnyardgrass (Echinochloa crus-galli) 10 cm in height were treated with 0.75 wt % (a.i.) glyphosate, isopropylamine salt (Monsanto), either alone, or plus a spray adjuvant (0.05 and 0.1 wt % respectively). The spray was applied at 100 L/ha using a T-Jet 8002E nozzle. The plants were subjected to simulated rainfall (2.5 cm), 2 h after herbicide application, to determine the rainfastening ability of the adjuvants. Plants were evaluated at week 1 and 2 weeks after treatment, by visual observation, relative to the untreated check. A score of 0 means no plant injury, while a score of 100 indicates total control (burndown, with no regrowth).
smiles,measurement,setting,value
"CC(C)N.O=C(O)CNCP(=O)(O)O [glyphosate-IPA, glyphosate, isopropylamine salt]",Percent Control 1 WAT,1 week after treatment,7.5d %
same,Percent Control 2 WAT,2 weeks after treatment,18.75c %

# Source: patent US6534077B2, “Organosiloxane containing modified groups in agricultural compositions” (Crompton Corporation, priority 2000, dated 2003)
